Assay results: article PMC4235314 (Scientific Reports, 2014)

T1: LmrR (Lactococcus lactis, UniProt A2RI36 1-116)
T1 sequence: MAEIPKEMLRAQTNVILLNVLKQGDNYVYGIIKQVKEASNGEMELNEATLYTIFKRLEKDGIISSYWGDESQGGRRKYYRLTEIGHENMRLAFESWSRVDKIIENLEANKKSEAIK


What was measured:
[1] = biological target: T2, LmrR (Lactococcus cremoris, UniProt A2RI36); test: SPR (Biacore […], LmrR on NTA chip), equilibrium one-site fit; format: binding; conditions: pH 7.4, 25 C, 150 mM NaCl, 50 uM EDTA, 0.005% P-20; dimeric central pore, 1:1 stoichiometry
T2 construct: gene llmg_0323; full-length, synthetic codon-optimised gene in pET28b (NcoI/XhoI), C-terminal His6-tag kept, E. coli BL21(DE3), homodimer

[2] = biological target: T2, LmrR; test: SPR (Biacore […], LmrR on NTA chip), kinetic […] Langmuir fit; format: binding; conditions: pH 7.4, 25 C, 150 mM NaCl, 50 uM EDTA, 0.005% P-20; dimeric central pore, 1:1 stoichiometry
[3] = biological target: T1, LmrR; test: NMR; 1H-13C HMQC titration, Ile d1 CSPs; low-field shift of Ile-62 d1 13C; SPR: 10 mM HEPES pH 7.4, 150 mM NaCl, 50 uM EDTA, 0.005% surfactant P-20, 25 C (described for compounds); NMR: 10 mM NaPi pH 6.8, 100 mM NaCl, 298 K
[4] = biological target: T1, LmrR; test: SPR; LmrR immobilised on NTA chip; 1:1 Langmuir global fit; text states only 'μM affinity', number in figure; SPR: 10 mM HEPES pH 7.4, 150 mM NaCl, 50 uM EDTA, 0.005% surfactant P-20, 25 C (described for compounds); NMR: 10 mM NaPi pH 6.8, 100 mM NaCl, 298 K

| Molecule | KD [1] | also measured |
| --- | --- | --- |
| COc1cccc2c1C(=O)c1c(O)c3c(c(O)c1C2=O)C[C@@](O)(C(C)=O)C[C@@H]3O[C@H]1C[C@H](N)[C@H](O)[C@H](C)O1 [daunomycin] | The KD values for H33342 and daunomycin were consistent with those previously reported |  |
| CC[n+]1c(-c2ccccc2)c2cc(N)ccc2c2ccc(N)cc21 [ethidium] | SPR analyses indicated that these compounds bind to LmrR with various affinities |  |
| CCN=c1cc2oc3cc(NCC)c(C)cc3c(-c3ccccc3C(=O)OCC)c-2cc1C [rhodamine 6G] | SPR analyses indicated that these compounds bind to LmrR with various affinities |  |
| CCOc1ccc(-c2nc3ccc(-c4nc5ccc(N6CCN(C)CC6)cc5[nH]4)cc3[nH]2)cc1 [Hoechst 33342] |  | KD [2]: SPR analyses indicated that these compounds bind to LmrR with various affinities |
| lmrCD oligo (33-bp promoter fragment) (dsDNA) DNA 1: CAATTTAATGTAAAGTAGTTTACATTATTTAAC DNA 2: GTTAAATAATGTAAACTACTTTACATTAAATTG |  | binding result [3]: binds; binding result [4]: binds |
